From patent US5624906A, “Oral hygiene compositions comprising heteroatom containing alkyl aldonamide compounds” (Lever Brothers Company, Division of Conopco, Inc., priority 1994, dated 1997)
Read-outs that look alike come from different tables or passages of the source.

Legend:
Krafft point = format: physicochemical; conditions: for Krafft Point (0.1%): 0.1% in water
Procedure: The temperature at and above which surfactants begin to form micelles instead of precipitates is referred to as the Krafft point (Tk) and at this temperature the solubility of a surfactant becomes equal to its CMC (numerical value at which micelles are formed).
The Krafft point was measured by preparing 650 ml of a 0.1% or 1.0% dispersion of aldonamide in water by weight. If the surfactant was soluble at room temperature, the solution was slowly cooled to 0° C. […] (less than zero). If it precipitated out of solution, the temperature at which precipitation occurs was taken as the Krafft point.
If the surfactant was insoluble at room temperature, the dispersion was slowly heated until the solution became homogeneous. It was then slowly cooled until precipitation occurred. The temperature at which the surfactant precipitates out of solution upon cooling was taken as the Krafft point.

[1] = Ross-Miles foam height (Examples 81-84); format: physicochemical; conditions: 0.1% aldonamide, 40° C. (or 5-10° C. above Krafft point), 0 ppm hardness
Procedure: (§1) In the Ross-Miles method, 200 mL of a surfactant solution contained in a pipette of specified dimensions with a 2.9-mm-i.d. orifice is allowed to fall 90 cm onto 50 mL of the same solution contained in a cylindrical vessel maintained at a given temperature by means of a water jacket. The height of the foam produced in the cylindrical vessel is read immediately after all the solution has run out of the pipette and then again after a given amount of time.
Using this method, the foam production (initial foam height in mm) and foam stability (final foam height after 10 minutes in mm) were measured at 0.1% aldonamide concentration, 40° C. and 0 ppm (parts per million) hardness.

[2] = Clarity of prototype surfactant compositions (Example 87); format: physicochemical; conditions: room temperature; for Appearance: 6 months
Procedure: The prototype shampoo composition is as follows:
(§2) The above formulations were prepared by admixing the above ingredients in listed order and heating the mixture to about 80° C. with rapid stirring. The mixture was then cooled to about 40° C., placed in a clear jar and stored at room temperature for 6 months.

[3] = Viscosity of sodium lauryl sulfate compositions (Example 88); format: physicochemical; conditions: for Viscosity: 22° C.
Procedure: The prototype surfactant composition is as follows:
as §2
It is well known that the viscosity of a liquid composition comprising of anionic surfactant can be modified by the addition of inorganic salts, such as sodium chloride. However, in the absence of an organic modifier, high levels of salt may be necessary to achieve the required viscosity which may lead to problems of storage at cold temperature or even salting out certain ingredients. In practice, however, the viscosity of a liquid composition is modified by the simultaneous addition of thickener and small amounts of inorganic salt (viscosity cobuilder). The combined effect is greater than either one alone. The viscosity of the above prototype surfactant composition comprising various amounts of heteroatom containing alkyl aldonamide compound is as follows: […]

[4] = Foam stability and enhancement of sodium/ammonium lauryl sulfate, Ross-Miles (Example 86); format: physicochemical; conditions: 45° C., 4.0% foam stabilizer in sodium/ammonium lauryl sulfate composition
Procedure: The results were compared to identical compositions comprising petrochemically derived foam stabilizing agents, in particular, alkanolamides and alcohol ethoxylates. The prototype surfactant composition is as follows:
The compositions were prepared by admixing the ingredients in listed order with rapid stirring at 45--50° C. Foam stability and enhancement were measured at 0.1% based on sodium and ammonium lauryl sulfate (0.16% total solids) at 45° C. and 0 or 120 parts per million (ppm) hardness calcium:magnesium ion 2:1.

[5] = Effectiveness in reducing surface tension (surface pressure at CMC); format: physicochemical; conditions: 60 °C, estimated by extrapolating a linear line
Source text: As mentioned before, surface tension reduction depends on the replacement of water molecules at the interface by surfactant molecules, therefore the effectiveness of a surfactant in reducing interfacial surface tension should reflect the saturated concentration of surfactant at the interface relative to that in bulk liquid phase. During this process the surface tension of water steadily decreases as bulk phase surfactant concentration increases. This will continue until the concentration reaches the critical micelle concentration (CMC), above which the surface tension remains nearly unchanged and the interface is saturated with surfactant. The surface tension at the CMC is therefore very close to the minimum interfacial tension or maximum surface pressure that the system can achieve. The surface pressure at this point, IIcmc, is a suitable measure of the effectiveness of a surfactant in reducing surface tension and is given as:
IIcmc =20+2.3nRT(Γmax) log[CMC/C20 ]
n=1 which represents the number of ions whose surface concentration changes with the change in liquid phase surfactant concentration.
CMC/C20 =is the ratio of the critical micelie concentration to the bulk phase surfactant concentration necessary to reduce the surface tension of water by 20 dyn/cm.

[6] = Effectiveness of adsorption (surface excess concentration, Gibbs equation); format: physicochemical; conditions: 60 °C, estimated by extrapolating a linear line
Source text: The surface excess concentration at surface saturation (Γmax) is defined as a measure of the effectiveness of surfactant adsorption at the water/air interface and represents the maximum value to which adsorption can be obtained. Effectiveness of adsorption is related to the interfacial area occupied by the surfactant molecule. The smaller the effective cross-sectional area of a surfactant at the interface, the greater its effectiveness of adsorption. The effectiveness of adsorption is an important factor in determining surfactant properties such as detergency, foaming, wetting or emulsification. While not wishing to be bound by theory, it is believed that surfactants that absorb effectively at the interface tend have tightly packed coherent interfacial films and often provide better surfactant benefits than those with loosely packed noncoherent films. The effectiveness of adsorption of C8 /C10 oxypropyl D-gluconamide was determined using the Gibbs equation given as: […]
(∂γ/∂log[Conc])T

[7] = cited from earlier work
[8] = cited from earlier work; remark: listed apart in the source
[9] = Foam stability and enhancement, Ross-Miles method (Example 85); format: physicochemical; conditions: triolein/calcium stearate 1 g/L, 10:90 mole % with C12 LAS, 35° C., read after 30 minutes
Procedure: The triolein/calcium stearate mixture was dispersed to the above solutions using a high speed shear mixer at 60° C. and then cooled to 35 ° C. The triolein/calcium stearate mixture represents an extreme type of antifoam behavior found in sebum soil.
as §1, with “read” for “read immediately”, “30 minutes” for “all the solution”, “elapsed.” for “run out of the pipette and then again after a given amount of time.”
The foam stability and enhancement of the heteroatom containing alkyl aldonamides was further determined using a 10:90 mole percent solution of C8 /C10 oxypropyl D-gluconamide (C8 C10 OPG): sodium dodecyl benzene sulfonate (C12 LAS) and compared to identical solutions of dodecyl D-gluconamide (C12 Gluc): sodium dodecyl benzene sulfonate in the presence and absence of the triolein/calcium stearate antifoam.

[10] = Critical micelle concentration, Wilhelmy plate method; format: physicochemical; conditions: 60 °C
Procedure: The critical micelie concentration (CMC) is defined as the concentration at which a surfactant forms micelles in aqueous solution. Micellization is the preferred interfacial phenomena, since certain surfactant benefits such as detergency (the solubilization of soils), foaming, wetting or emulsification depend on the formation of these aggregates in solution.
The CMC value of C8 /C10 oxypropyl D-gluconamide was determined by plotting surface tension as a function of log(concentration) and extrapolating linear points to obtain an intersection point. The concentration at this point was taken as the CMC. The technique used was the Wilhelmy plate method and the instrument used was a Lauda Auto-Tensiometer. While wishing not to be bound to theory, it is believed that surfactants with low CMC values form micelles more readily at lower concentrations than those with high CMC values.

[11] = Water solubility (statements); format: physicochemical

Compound	Πcmc (surface pressure) [5] [dyn/cm]	Γmax (surface excess concentration at surface saturation) [6]	Πcmc (surface pressure) ([7]; 25 °C) [dyn/cm]	Πcmc (surface pressure) ([7]; 40 °C) [dyn/cm]	Γmax (surface excess concentration at surface saturation) ([8]; 25 °C)	Γmax (surface excess concentration at surface saturation) ([8]; 40 °C)	further results
CCCCCCCCCCCCOCCCNC(=O)[C@H](O)[C@@H](O)[C@H](O)[C@H](O)CO [C12 Oxypropyl D-Gluconamide]							Krafft Point (0.1%) (Krafft point): 61 °C; Foam Height Initial [1]: 200 mm; Foam Height Final ([1]; after 10 minutes): 110 mm; Appearance ([2]; 3.0% in […] sodium lauryl sulfate): Clear; Appearance ([2]; 5.0% in […] sodium lauryl sulfate): Precipitate; Appearance (Time): time of precipitate ([2]; 5.0%): 5 months; Viscosity Increase ([3]; 3.0% thickener): 120 x; Viscosity ([3]; 3.0% thickener): 1800 Centipoise; Viscosity Increase ([3]; 5.0% thickener): 1373 x; Viscosity ([3]; 5.0% thickener): 20600 Centipoise
CCCCCCCCCCCC(=O)N(CCO)CCO [Lauramide DEA, lauramide diethanolamine]							Initial FH ([4]; 0 ppm hardness): 190 mm
CCCCCCCCCCCCOCCOCCOCCOCCO [Dodecyltetra(oxyethylene) Ether]	40.7	3.01 × 10^-10 mole/cm^2	43.4	42.0	3.63 × 10^-10 mole/cm^2	3.41 × 10^-10 mole/cm^2	
CCCCCCCCCCCCOCCOCCOCCOCCOCCOCCOCCO [Dodecylhepta(oxyethylene) Ether]	36.8	2.71 × 10^-10 mole/cm^2	38.3	38.5	2.90 × 10^-10 mole/cm^2	2.77 × 10^-10 mole/cm^2	
CCCCCCCCCCCCOCCOCCOCCO [Dodecyltri(oxyethylene) Ether]	41.4	3.83 × 10^-10 mole/cm^2	44.1	43.1	3.98 × 10^-10 mole/cm^2	3.90 × 10^-10 mole/cm^2	
sodium dodecyl benzene sulfonate [C12 LAS]							Foam Height, With Antifoam [9]: 61 mm
CCCCCCCCCCCCNC(=O)[C@H](O)[C@@H](O)[C@H](O)[C@H](O)CO [C12 D-Gluconamide, dodecyl D-gluconamide]							Krafft Point (0.1%) (Krafft point): 91 °C; CMC (in words) [10]: None (Insoluble); water solubility (in words) [11]: insoluble in water
cocoamide monoethanolamine [Cocoamide MEA]							Final FH after 60 Min. ([4]; 0 ppm hardness): 70 mm; Final FH after 60 Min. ([4]; 120 ppm hardness): 53 mm
CCCCCCCCCCCCOCCCNC(=O)[C@H](O)[C@@H](O)[C@H](O[C@@H]1O[C@H](CO)[C@H](O)[C@H](O)[C@H]1O)[C@H](O)CO [C12 Oxypropyl D-Lactobionamide, dodecyloxypropyl D-lactobionamide]							Krafft Point (1.0%) (Krafft point; 1.0% in water): < 0 °C; Viscosity Increase ([3]; 3.0% thickener): 23 x; Viscosity ([3]; 3.0% thickener): 340 Centipoise; Viscosity Increase ([3]; 5.0% thickener): 97 x; Viscosity ([3]; 5.0% thickener): 1455 Centipoise
CCCCCCCCCCCCOCCOCCOCCOCCOCCO [Dodecylpenta(oxyethylene) Ether]	40.7	3.16 × 10^-10 mole/cm^2	41.5	41.2	3.31 × 10^-10 mole/cm^2	3.28 × 10^-10 mole/cm^2	CMC/C20 ([7]; 25 °C): 15.0
